# Results from patent US11357739B2, “Pimarane diterpenoids for use in wound healing and angiogenesis” (UNIVERSITY OF SOUTH CAROLINA, priority 2017, dated 2022).
# Assays:
# NHEKs = assay: In vitro scratch assay (cell migration, wound closure); format: cell-based, human
# Method: (§1) Human umbilical vein endothelial cells (HUVECs), adult normal human epidermal keratinocytes (NHEKs), normal human dermal fibroblasts (NHDFs) and related media for cell culture including endothelial basal and growth medium-2 (EBM-2, EGM-2), keratinocyte basal and growth medium-2 (KBM-2, KGM™-2), fibroblast basal and growth medium (FBM, FGM™) were purchased from Lonza. Cells were incubated at 37° C. and 5% CO2 throughout the experiments. Phosphate-Buffered Saline (PBS), [3-(4,5-dimethylthiazol-2-yl)-5-(3-carboxymethoxyphenyl)-2-(4-sulfophenyl)-2H-tetrazolium (MTS) (Promega) colorimetric assay and growth factor reduced matrigel BD (Corning) were from Sigma-Aldrich. Culture-Insert 2 Well 24 IbiTreat was used for the scratch assay.
# Cell migration of NHEKs was assessed through making a cell-free gap with a Culture-insert 2 well 24, consisting of two wells that were separated by a wall. A total of 70 μl of cell suspension comprising of 35×10^3 cell was applied in each well. Cells were given 24 hours to attach and reach confluency. Culture inserts were then removed, and cell debris was washed with PBS. The samples were supplemented with different concentration of the compound of interest in growth media and incubated at 37° C. and 5% CO2 for 20 hours. Images were taken every 4 hours using a phase contrast Nikon Eclipse Ti-E inverted microscope. Quantification of percent wound healing was performed by measuring the gap distance using the following formula:
# [formula] in which Wn is the width of gap after every 4 hours and W0 is the initial width zero right after forming a scratch. Capillary Tube Formation
# HUVECs = assay: Capillary tube formation on matrigel; format: cell-based, human; conditions: 1 μg/mL, 8 hours
# Method: as §1
# Matrigel was kept in a −20° C. freezer and thawed on ice overnight in a 4° C. refrigerator. A total of 50 μl of thawed matrigel was added to each well of pre-chilled 96-well plate and then incubated for 30 min at 37° C. to form a gel. Next, 100 μl of a HUVEC cell suspension (passage 2-6) in conditioned media (20000 cell/well), including the compound of this invention, was added to gel and incubated at 37° C. for 8 hours. The number of junctions in tubes was examined using a phase contrast inverted microscope (Invitrogen EVOS FL Auto Cell Imaging) and compared to the conditions with no compound (negative control) and VEGF growth factor (positive control).
# [1] = system: normal human epidermal keratinocytes (NHEKs); assay: Cytotoxicity assay (MTS), cell proliferation and viability; format: cell-based; conditions: 24 hours of exposure, 0.1 to 1 μg/mL, vs control and DMSO vehicle control
# Method: as §1
# (§2) In order to determine cell viability, HUVECs, NHDFs, NHEKs were cultured in their respective growth media to reach 80% confluency. Cells were seeded at the density of 3×10^3 cell per 96 well plate in a total volume of 100 μl in each well. After seeding, the cells were incubated for 24 hours at 37° C. and 5% CO2 to allow for cell attachment. Media was changed and replaced with media supplemented with the desired concentration of the compound of interest (0.1, 0.5, 1 and 10 μg/mL), being first dissolved at 10,000 μg/mL in DMSO and subsequently diluted in culture media. The vehicle control was culture medium supplemented with DMSO 0.1% (Macron Fine Chemicals), representing the highest final concentration of DMSO used to dissolve the natural compound. Following 24 hours of incubation, […] and incubated for 2 hours. Colored formazan absorbance which was produced by bio-reduction of MTS tetrazolium compound in live cells was read at 490 nm using a Spectramax 190 spectrophotometer and cell proliferation was assessed. A standard calibration curve at different concentration of cells was prepared to correlate cell number to absorbance.
# [2] = system: human umbilical vein endothelial cells (HUVECs); assay: as above; format: cell-based; conditions: 24 hours of exposure, 0.1 to 1 μg/mL, vs control and DMSO vehicle control
# Method: as §1, §2
# [3] = system: normal human dermal fibroblasts (NHDFs); assay: as above; format: cell-based; conditions: 24 hours of exposure, 0.1 to 1 μg/mL, vs control and DMSO vehicle control
# Method: as §1, §2
smiles,measurement,setting,value
C=CC1(C)CC2=CCC3C(C)(C)CCC(O)C3(C)C2CC1O (stereo not shown) [compound of FIG. 1],migration during exposure time,"NHEKs; 1 μg/mL, compared with untreated cells and 0.1 μg/mL",higheast migration
same,percentage of wound closure relative to non-treated control groups,"NHEKs; 1 μg/mL, four hours post-treatment",~10 fold
same,wound closure of NHEKs,"NHEKs; 0.1 and 1 μg/mL, monitored for 20 hours, vs untreated control",significantly enhance the wound closure
same,"tube formation, more than the control (untreated cell)",HUVECs,60%
same,cell toxicity (MTS),[1],no cell toxicity
same,cell toxicity (MTS),[2],no cell toxicity
same,cell toxicity (MTS),[3],no cell toxicity
